# Columns and labels:
# [1] = target: T1, Amine oxidase [flavin-containing] B (Rattus norvegicus, UniProt P19643); assay: Ability to inhibit Monoamine oxidase B enzyme
# T1 sequence (P19643 whole entry): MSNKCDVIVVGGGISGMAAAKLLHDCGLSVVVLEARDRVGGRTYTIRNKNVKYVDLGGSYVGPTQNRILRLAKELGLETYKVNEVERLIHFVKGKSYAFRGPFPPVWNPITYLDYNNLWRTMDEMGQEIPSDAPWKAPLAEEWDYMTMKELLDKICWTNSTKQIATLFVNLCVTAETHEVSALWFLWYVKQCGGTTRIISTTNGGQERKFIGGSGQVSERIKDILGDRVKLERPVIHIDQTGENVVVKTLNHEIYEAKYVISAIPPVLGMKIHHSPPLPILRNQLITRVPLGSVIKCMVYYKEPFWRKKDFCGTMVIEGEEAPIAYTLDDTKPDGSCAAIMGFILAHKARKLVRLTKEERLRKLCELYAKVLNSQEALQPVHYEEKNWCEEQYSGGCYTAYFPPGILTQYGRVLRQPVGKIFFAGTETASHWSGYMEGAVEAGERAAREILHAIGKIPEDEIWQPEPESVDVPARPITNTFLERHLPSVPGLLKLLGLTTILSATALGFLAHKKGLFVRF
# [2] = target: T2, Amine oxidase [flavin-containing] A (Rattus norvegicus, UniProt P21396); assay: Ability to inhibit Monoamine oxidase A enzyme
# T2 sequence (P21396 whole entry): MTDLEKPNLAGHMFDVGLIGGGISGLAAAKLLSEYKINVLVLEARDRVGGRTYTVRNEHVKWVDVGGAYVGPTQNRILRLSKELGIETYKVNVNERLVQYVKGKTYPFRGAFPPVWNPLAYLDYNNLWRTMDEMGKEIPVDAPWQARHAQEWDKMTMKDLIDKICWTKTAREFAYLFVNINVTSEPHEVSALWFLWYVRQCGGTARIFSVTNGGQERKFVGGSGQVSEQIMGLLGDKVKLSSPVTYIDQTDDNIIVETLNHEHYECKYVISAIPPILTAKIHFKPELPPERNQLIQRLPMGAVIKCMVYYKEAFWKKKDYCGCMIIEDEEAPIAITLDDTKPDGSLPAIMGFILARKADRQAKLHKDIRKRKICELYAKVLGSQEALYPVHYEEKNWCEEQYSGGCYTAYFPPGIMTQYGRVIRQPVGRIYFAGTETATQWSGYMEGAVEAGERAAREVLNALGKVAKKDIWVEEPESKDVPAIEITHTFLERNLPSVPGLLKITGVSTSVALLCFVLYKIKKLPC
SMILES,IC50 [1] [µM],IC50 [2] [µM]
O=C1c2ccccc2-c2nnc(-c3cccc([N+](=O)[O-])c3)cc21,> 0.5,1
Cc1c(-c2ccccc2)nnc2c1C(=O)c1ccccc1-2,> 100,100
O=C1c2ccccc2-c2nnc(-c3ccccc3[N+](=O)[O-])cc21,,100
O=C1c2ccccc2-c2nnc(-c3ccccc3C(F)(F)F)cc21,10,10
O=C1c2ccccc2-c2nnccc21,27.5,97.6
O=C1c2ccccc2-c2nnc(-c3ccc([N+](=O)[O-])cc3)cc21,,25
COc1ccc(-c2cc3c(nn2)-c2ccccc2C3=O)cc1,,10
COc1cccc(-c2cc3c(nn2)-c2ccccc2C3=O)c1,,50
COc1ccc2c(c1)C(=O)c1cc(-c3cccc(C(F)(F)F)c3)nnc1-2,,5
COc1ccccc1-c1cc2c(nn1)-c1ccccc1C2=O,> 50,50
O=C1c2ccccc2-c2nnc(/C=C/c3ccccc3)cc21,,> 1
O=C1c2ccccc2-c2nnc(-c3ccc(F)c(F)c3)cc21,,1
O=C(c1ccccc1)c1c(-c2ccccc2)nnc2c1C(=O)c1ccccc1-2,7.7,10
O=C(O)c1ccc(-c2cc3c(nn2)-c2ccccc2C3=O)cc1,100,100
COc1cc(-c2cc3c(nn2)-c2ccccc2C3=O)ccc1O,10,10
Cc1nnc2c(c1-c1ccccc1)C(=O)c1ccccc1-2,,50
O=C1c2ccccc2-c2nnc(CCc3ccccc3)cc21,,50
O=C(c1ccccc1)c1cc2c(nn1)-c1ccccc1C2=O,16.1,> 50
O=C1c2ccccc2-c2nnc(-c3cccc(O)c3)cc21,> 1,1
CC(=O)Nc1ccc(-c2cc3c(nn2)-c2ccccc2C3=O)cc1,> 10,> 10
Cc1nnc2c(c1Cc1ccccc1)C(=O)c1ccccc1-2,83.5,100
O=C1c2ccccc2-c2nnc(-c3cccnc3)cc21,> 25,> 25

SMILES,IC50 [1] [µM],IC50 [2] [µM]
O=C1c2ccccc2-c2nnc(-c3ccccn3)cc21,> 25,25
O=C1c2ccccc2-c2nnc3ccc4ccccc4c3c21,10,10
COc1ccc(-c2cc3c(nn2)-c2ccccc2C3=O)cc1OC,1,1
O=C1c2ccccc2-c2nnc(-c3cc(Cl)cc(Cl)c3)cc21,0.71,1
CCCCOc1ccc(-c2cc3c(nn2)-c2ccccc2C3=O)cc1,10,10
O=C1c2ccccc2-c2nnc(-c3ccc(Cl)cc3)cc21,,> 5
O=C1c2ccccc2-c2nnc(-c3ccccc3Cl)cc21,,> 50
O=C1c2ccccc2-c2nnc3c(c21)-c1ccccc1CC3,50,50
O=C1c2ccccc2-c2nnc(-c3cccc(Br)c3)cc21,,1
O=C1c2ccccc2-c2nnc3ccccc3c21,1,1
O=C1c2ccccc2-c2nnc(-c3cccc(F)c3)cc21,,10
O=C1c2ccccc2-c2nnc(-c3ccc(O)cc3)cc21,,> 50
O=C1c2ccccc2-c2nnc(-c3ccccc3O)cc21,> 1,1
O=C1c2ccccc2-c2nnc(-c3cccc(C(F)(F)F)c3)cc21,,> 5
O=C1c2ccccc2-c2nncc(-c3ccccc3)c21,93.7,34.3
O=C1c2ccccc2-c2nnc(-c3ccccc3F)cc21,18.1,> 20
O=C1c2ccccc2-c2nnc(-c3ccc4ccccc4c3)cc21,,10
O=C1c2ccccc2-c2nnc(-c3ccc(C(F)(F)F)cc3)cc21,,1
O=C1c2ccccc2-c2nnc(-c3ccccc3)c(Cc3ccccc3)c21,,> 10
O=C(O)CCc1cc2c(nn1)-c1ccccc1C2=O,100,100
c1ccc(-c2cc3c(nn2)-c2ccccc2C3)cc1,23.4,
O=C1c2ccccc2-c2nnc(Cc3ccccc3)cc21,,100

SMILES,IC50 [1] [µM],IC50 [2] [µM]
O=C1c2ccccc2-c2nnc(-c3ccc(Br)cc3)cc21,,1
N#Cc1cccc(-c2cc3c(nn2)-c2ccccc2C3=O)c1,,> 10
O=C1c2ccccc2-c2nnc3c(c21)CCCC3,100,50.5
N#Cc1ccc(-c2cc3c(nn2)-c2ccccc2C3=O)cc1,,25
O=C1c2ccccc2-c2nnc(C(F)(F)F)cc21,> 25,25
O=C1c2cc(O)ccc2-c2nnc(-c3cccc(C(F)(F)F)c3)cc21,5.1,5
O=C1c2ccccc2-c2nnc(-c3ccc(N4CCCCC4)cc3)cc21,1,1
Cc1ccccc1-c1cc2c(nn1)-c1ccccc1C2=O,,10
CC(=O)c1ccc(-c2cc3c(nn2)-c2ccccc2C3=O)cc1,,> 10
O=C1c2ccccc2-c2nnc(-c3cccc(Cl)c3)cc21,,> 5
O=C1c2ccccc2-c2nnc(-c3cccs3)cc21,1,1
Nc1cccc(-c2cc3c(nn2)-c2ccccc2C3=O)c1,,25.9
O=C1c2ccccc2-c2nncc(Cc3ccccc3)c21,50,50
O=C1c2ccccc2-c2nnc3c(c21)CCc1ccccc1-3,50,50
O=C1c2ccccc2-c2nnc(-c3cccc4ccccc34)cc21,> 5,10
O=C1c2ccccc2-c2nnc(-c3ccc(F)cc3)cc21,,30.6
Cc1cc2c(nn1)-c1ccccc1C2=O,,> 100
O=C1c2ccccc2-c2nnc(-c3cc(C(F)(F)F)cc(C(F)(F)F)c3)cc21,> 2,1
Nc1ccc(-c2cc3c(nn2)-c2ccccc2C3=O)cc1,24.7,36.8
CCOC(=O)c1c(-c2ccccc2)nnc2c1C(=O)c1ccccc1-2,5.3,> 50
O=C1c2ccccc2-c2nnc(-c3ccco3)cc21,,> 50
O=C1c2ccccc2-c2nnc(-c3ccccc3)cc21,,25
